Data published in ChEMBL document CHEMBL3885881, “DrugMatrix”.

Organism: Rattus norvegicus
Experiment: DrugMatrix - Regimen: Daily Repeat
Assay type: toxicity, organism-based, Sprague-Dawley
Set-up: regimen Daily Repeat, gender Male, age 6-8 weeks
Conditions: in vivo, po, route oral GAVAGE, vehicle 100 % WATER; for ABSOLUTE BASOPHIL / ABSOLUTE EOSINOPHIL / ABSOLUTE LYMPHOCYTE / ABSOLUTE MONOCYTE / ABSOLUTE SEGMENTED NEUTROPHIL / BASOPHIL / EOSINOPHIL / ERYTHROCYTE COUNT / HEMATOCRIT / HEMOGLOBIN / LEUKOCYTE COUNT / LYMPHOCYTE / MEAN CORPUSCULAR HEMOGLOBIN / MEAN CORPUSCULAR HEMOGLOBIN CONCENTRATION / MEAN CORPUSCULAR VOLUME / MONOCYTE / NEUTROPHIL / NUCLEATED RED BLOOD CELLS / PLATELET COUNT: tissue Blood; for ALANINE AMINOTRANSFERASE / ALBUMIN / ALKALINE PHOSPHATASE / ASPARTATE AMINOTRANSFERASE / BLOOD UREA NITROGEN / CARBON DIOXIDE / CHLORIDE / CHOLESTEROL / CREATINE PHOSPHOKINASE / CREATININE / GLUCOSE / LACTATE DEHYDROGENASE / LIPASE / PHOSPHORUS / POTASSIUM / SODIUM / TOTAL BILIRUBIN / TOTAL PROTEIN / URIC ACID: tissue Plasma
[1] = 4 mg/kg, 72 h, dose level Low, time 3 day
[2] = 4 mg/kg, 120 h, dose level Low, time 5 day
[3] = 1100 mg/kg, 72 h, dose level High, time 3 day
[4] = 1100 mg/kg, 120 h, dose level High, time 5 day

COc1ccnc(C[S+]([O-])c2nc3ccc(OC(F)F)cc3[nH]2)c1OC (configuration not stated) [PANTOPRAZOLE]
ABSOLUTE BASOPHIL [1]: 0 CELLS/uL | ABSOLUTE EOSINOPHIL [1]: 0 CELLS/uL | ABSOLUTE LYMPHOCYTE [1]: 12700.33 CELLS/uL | ABSOLUTE MONOCYTE [1]: 129 CELLS/uL | ABSOLUTE SEGMENTED NEUTROPHIL [1]: 970.67 CELLS/uL | BASOPHIL [1]: 0% | EOSINOPHIL [1]: 0% | ERYTHROCYTE COUNT [1]: 5.41 x10E6/uL | HEMATOCRIT [1]: 34.33% | HEMOGLOBIN [1]: 13.7 G/DL | LEUKOCYTE COUNT [1]: 13.8 x10E3/uL | LYMPHOCYTE [1]: 91.33% | MEAN CORPUSCULAR HEMOGLOBIN [1]: 25.37 pg | MEAN CORPUSCULAR HEMOGLOBIN CONCENTRATION [1]: 39.93 G/DL | MEAN CORPUSCULAR VOLUME [1]: 63.43 fL | MONOCYTE [1]: 1% | NEUTROPHIL [1]: 7.67% | NUCLEATED RED BLOOD CELLS [1]: 0.67 /100WBC | PLATELET COUNT [1]: 1322.33 x10E3/uL | ALANINE AMINOTRANSFERASE [1]: 47 u/L | ALBUMIN [1]: 4.07 G/DL | ALKALINE PHOSPHATASE [1]: 370.67 u/L | ASPARTATE AMINOTRANSFERASE [1]: 94 u/L | BLOOD UREA NITROGEN [1]: 15.67 mg/dL | CARBON DIOXIDE [1]: 25.67 mmol/L | CHLORIDE [1]: 102.67 MEQ/L | CHOLESTEROL [1]: 70.33 mg/dL | CREATINE PHOSPHOKINASE [1]: 679.33 u/L | CREATININE [1]: 0.14 mg/dL | GLUCOSE [1]: 153.67 mg/dL | LACTATE DEHYDROGENASE [1]: 404.33 u/L | LIPASE [1]: 9 u/L | PHOSPHORUS [1]: 13.8 mg/dL | POTASSIUM [1]: 7.04 MEQ/L | SODIUM [1]: 146.43 MEQ/L | TOTAL BILIRUBIN [1]: 0.23 mg/dL | TOTAL PROTEIN [1]: 5.67 G/DL | URIC ACID [1]: 1.7 mg/dL | ABSOLUTE BASOPHIL [2]: 0 CELLS/uL | ABSOLUTE EOSINOPHIL [2]: 43.33 CELLS/uL | ABSOLUTE LYMPHOCYTE [2]: 13938.33 CELLS/uL | ABSOLUTE MONOCYTE [2]: 59 CELLS/uL | ABSOLUTE SEGMENTED NEUTROPHIL [2]: 859.33 CELLS/uL | BASOPHIL [2]: 0% | EOSINOPHIL [2]: 0.33% | ERYTHROCYTE COUNT [2]: 5.27 x10E6/uL | HEMATOCRIT [2]: 34.2% | HEMOGLOBIN [2]: 13.7 G/DL | LEUKOCYTE COUNT [2]: 14.9 x10E3/uL | LYMPHOCYTE [2]: 93.33% | MEAN CORPUSCULAR HEMOGLOBIN [2]: 26.07 pg | MEAN CORPUSCULAR HEMOGLOBIN CONCENTRATION [2]: 40.07 G/DL | MEAN CORPUSCULAR VOLUME [2]: 65.03 fL | MONOCYTE [2]: 0.33% | NEUTROPHIL [2]: 6% | NUCLEATED RED BLOOD CELLS [2]: 0.33 /100WBC | PLATELET COUNT [2]: 1411.33 x10E3/uL | ALANINE AMINOTRANSFERASE [2]: 54.67 u/L | ALBUMIN [2]: 4.17 G/DL | ALKALINE PHOSPHATASE [2]: 396 u/L | ASPARTATE AMINOTRANSFERASE [2]: 114.33 u/L | BLOOD UREA NITROGEN [2]: 17.67 mg/dL | CARBON DIOXIDE [2]: 26 mmol/L | CHLORIDE [2]: 102 MEQ/L | CHOLESTEROL [2]: 60.67 mg/dL | CREATINE PHOSPHOKINASE [2]: 690.67 u/L | CREATININE [2]: 0.13 mg/dL | GLUCOSE [2]: 144 mg/dL | LACTATE DEHYDROGENASE [2]: 666.67 u/L | LIPASE [2]: 9 u/L | PHOSPHORUS [2]: 14.27 mg/dL | POTASSIUM [2]: 6.77 MEQ/L | SODIUM [2]: 143.77 MEQ/L | TOTAL BILIRUBIN [2]: 0.2 mg/dL | TOTAL PROTEIN [2]: 5.8 G/DL | URIC ACID [2]: 1.57 mg/dL | ABSOLUTE BASOPHIL [3]: 0 CELLS/uL | ABSOLUTE EOSINOPHIL [3]: 0 CELLS/uL | ABSOLUTE LYMPHOCYTE [3]: 16363.67 CELLS/uL | ABSOLUTE MONOCYTE [3]: 197 CELLS/uL | ABSOLUTE SEGMENTED NEUTROPHIL [3]: 1639.33 CELLS/uL | BASOPHIL [3]: 0% | EOSINOPHIL [3]: 0% | ERYTHROCYTE COUNT [3]: 5.69 x10E6/uL | HEMATOCRIT [3]: 35.37% | HEMOGLOBIN [3]: 14 G/DL | LEUKOCYTE COUNT [3]: 18.2 x10E3/uL | LYMPHOCYTE [3]: 90.33% | MEAN CORPUSCULAR HEMOGLOBIN [3]: 24.67 pg | MEAN CORPUSCULAR HEMOGLOBIN CONCENTRATION [3]: 39.57 G/DL | MEAN CORPUSCULAR VOLUME [3]: 62.3 fL | MONOCYTE [3]: 1% | NEUTROPHIL [3]: 8.67% | NUCLEATED RED BLOOD CELLS [3]: 0.33 /100WBC | PLATELET COUNT [3]: 1283.67 x10E3/uL | ALANINE AMINOTRANSFERASE [3]: 51.67 u/L | ALBUMIN [3]: 4.03 G/DL | ALKALINE PHOSPHATASE [3]: 372.67 u/L | ASPARTATE AMINOTRANSFERASE [3]: 89 u/L | BLOOD UREA NITROGEN [3]: 17 mg/dL | CARBON DIOXIDE [3]: 29 mmol/L | CHLORIDE [3]: 98.67 MEQ/L | CHOLESTEROL [3]: 105.67 mg/dL | CREATINE PHOSPHOKINASE [3]: 255 u/L | CREATININE [3]: 0.16 mg/dL | GLUCOSE [3]: 134.33 mg/dL | LACTATE DEHYDROGENASE [3]: 182.67 u/L | LIPASE [3]: 11 u/L | PHOSPHORUS [3]: 12.2 mg/dL | POTASSIUM [3]: 7.39 MEQ/L | SODIUM [3]: 142.4 MEQ/L | TOTAL BILIRUBIN [3]: 0.23 mg/dL | TOTAL PROTEIN [3]: 5.67 G/DL | URIC ACID [3]: 1.67 mg/dL | ABSOLUTE BASOPHIL [4]: 0 CELLS/uL | ABSOLUTE EOSINOPHIL [4]: 57.33 CELLS/uL | ABSOLUTE LYMPHOCYTE [4]: 9481.67 CELLS/uL | ABSOLUTE MONOCYTE [4]: 24 CELLS/uL | ABSOLUTE SEGMENTED NEUTROPHIL [4]: 670.33 CELLS/uL | BASOPHIL [4]: 0% | EOSINOPHIL [4]: 0.33% | ERYTHROCYTE COUNT [4]: 5.57 x10E6/uL | HEMATOCRIT [4]: 33.33% | HEMOGLOBIN [4]: 13.7 G/DL | LEUKOCYTE COUNT [4]: 10.23 x10E3/uL | LYMPHOCYTE [4]: 91.67% | MEAN CORPUSCULAR HEMOGLOBIN [4]: 24.57 pg | MEAN CORPUSCULAR HEMOGLOBIN CONCENTRATION [4]: 41.13 G/DL | MEAN CORPUSCULAR VOLUME [4]: 59.83 fL | MONOCYTE [4]: 0.33% | NEUTROPHIL [4]: 7.67% | NUCLEATED RED BLOOD CELLS [4]: 0 /100WBC | PLATELET COUNT [4]: 1302.33 x10E3/uL | ALANINE AMINOTRANSFERASE [4]: 40.33 u/L | ALBUMIN [4]: 4.33 G/DL | ALKALINE PHOSPHATASE [4]: 318 u/L | ASPARTATE AMINOTRANSFERASE [4]: 84 u/L | BLOOD UREA NITROGEN [4]: 14.67 mg/dL | CARBON DIOXIDE [4]: 27 mmol/L | CHLORIDE [4]: 102.5 MEQ/L | CHOLESTEROL [4]: 129.33 mg/dL | CREATINE PHOSPHOKINASE [4]: 241.33 u/L | CREATININE [4]: 0.19 mg/dL | GLUCOSE [4]: 122.33 mg/dL | LACTATE DEHYDROGENASE [4]: 148 u/L | LIPASE [4]: 11.67 u/L | PHOSPHORUS [4]: 9.87 mg/dL | POTASSIUM [4]: 5.71 MEQ/L | SODIUM [4]: 145.65 MEQ/L | TOTAL BILIRUBIN [4]: 0.27 mg/dL | TOTAL PROTEIN [4]: 6.13 G/DL | URIC ACID [4]: 0.47 mg/dL
